# Measured values as given in US9012403B2, “Peptides as active agents to stabilize biological barriers” (XiberScience GmbH, priority 2010, dated 2015).
# Tested on: Ventilator-Induced Lung Injury (VILI)
# Experiment: Ventilator-induced lung injury (VILI) after LPS pre-challenge
# Assay type: in vivo
# Conditions: mice
# Procedure: Experiments were performed with healthy C57BL/6 (aged 8-10 weeks, with weights ranging from 19-25 g). All interventions were performed according to the guide lines of AAALAC. All experiment were approved by the Ethic committee of the University of Amsterdam.
# Mice were challenged with LPS (dosage: 50 μg per mouse) (or saline), via intranasal injection 2 h before initiation of mechanical ventilation, to induce lung injury.
# XIB1-1b (or random peptide) was administered i.v. 10 min before start of mechanical ventilation (dosage: 4 mg/kg loading dose, followed administration i.v. injections 1 mg/kg/h.
# A Y-tube connector with 1.0 mm outer diameter and 0.6 mm inner diameter was surgically inserted into the trachea under general anesthesia. Mice were placed in a supine position and connected to a ventilator. Mice were pressure-controlled ventilated with either an inspiratory pressure of 10 cm H2O (resulting in VT˜7.5 mL/kg; low VT, LVT) or an inspiratory pressure of 18 cm H2O (resulting in VT˜15 mL/kg; high VT, HVT). Positive end-expiratory pressure (PEEP) is set at 2 cm H2O with both MV-strategies. The fraction of inspired oxygen was kept at 0.5 throughout the experiment. The inspiration to expiration ratio was kept at 1:1 throughout the experiment.
# BALF was obtained by instilling 3 times 0.5 mL aliquots of saline by a 22-gauge Abbocath-T catheter (Abbott, Sligo, Ireland) into the trachea. Approximately, 1.0 mL of BALF was retrieved per mouse and cell counts were determined using a hemacytometer (Beckman Coulter, Fullerton, Calif.). Subsequently, differential counts were done on cytospin preparations stained with a modified Giemsa stain, Diff-Quick (Dade Behring AG, Düdingen, Switzerland). Supernatant was stored at −80° C.
# Total protein levels in BALF are determined using a Bradford Protein Assay Kit (OZ Biosciences, Marseille, France) according to manufacturers' instructions with bovine serum albumin as standard. Mouse IgM was determined by ELISA by using anti-Mouse IgM sensitized 96-strip micro-well plates according to manufacturers' instructions (IMMUNO-TEK kit from ZeptoMetrix).
# [1] = LPS + high tidal volume ventilation (LPS-HTV), i.v. 4 mg/kg loading, then 1 mg/kg/h
# [2] = LPS + low tidal volume ventilation (LPS+LTV), compared to scrambled peptide
# [3] = LPS + low tidal volume ventilation (LPS+LTV), protocol caused no pronounced increase
sequence,measurement,setting,value
GRRPLGGISGG (/note=“Description of artificial sequence cingulin-derived peptide XIB1-b”),IgM content in the BALF,[1],significant decrease
same,neutrophil count in the BALF,[1],significant decrease
same,total cell count in the BALF,[1],significant decrease
same,total protein content in the BALF,[1],significant decrease
same,neutrophil counts in the BALF,[2],significantly reduced
same,total cell counts in the BALF,[2],significantly reduced
same,IgM content in the BALF,[3],no effect
same,total protein content in the BALF,[3],no effect
